Source: patent publication US9902730B2, “Compounds and compositions as toll-like receptor 7 agonists” (NOVARTIS AG, priority 2014, dated 2018)

Target: T1, human TLR7 (Homo sapiens, UniProt Q9NYK1)
T1 construct: expressed in transfected cells
T1 sequence (Q9NYK1 27-1049): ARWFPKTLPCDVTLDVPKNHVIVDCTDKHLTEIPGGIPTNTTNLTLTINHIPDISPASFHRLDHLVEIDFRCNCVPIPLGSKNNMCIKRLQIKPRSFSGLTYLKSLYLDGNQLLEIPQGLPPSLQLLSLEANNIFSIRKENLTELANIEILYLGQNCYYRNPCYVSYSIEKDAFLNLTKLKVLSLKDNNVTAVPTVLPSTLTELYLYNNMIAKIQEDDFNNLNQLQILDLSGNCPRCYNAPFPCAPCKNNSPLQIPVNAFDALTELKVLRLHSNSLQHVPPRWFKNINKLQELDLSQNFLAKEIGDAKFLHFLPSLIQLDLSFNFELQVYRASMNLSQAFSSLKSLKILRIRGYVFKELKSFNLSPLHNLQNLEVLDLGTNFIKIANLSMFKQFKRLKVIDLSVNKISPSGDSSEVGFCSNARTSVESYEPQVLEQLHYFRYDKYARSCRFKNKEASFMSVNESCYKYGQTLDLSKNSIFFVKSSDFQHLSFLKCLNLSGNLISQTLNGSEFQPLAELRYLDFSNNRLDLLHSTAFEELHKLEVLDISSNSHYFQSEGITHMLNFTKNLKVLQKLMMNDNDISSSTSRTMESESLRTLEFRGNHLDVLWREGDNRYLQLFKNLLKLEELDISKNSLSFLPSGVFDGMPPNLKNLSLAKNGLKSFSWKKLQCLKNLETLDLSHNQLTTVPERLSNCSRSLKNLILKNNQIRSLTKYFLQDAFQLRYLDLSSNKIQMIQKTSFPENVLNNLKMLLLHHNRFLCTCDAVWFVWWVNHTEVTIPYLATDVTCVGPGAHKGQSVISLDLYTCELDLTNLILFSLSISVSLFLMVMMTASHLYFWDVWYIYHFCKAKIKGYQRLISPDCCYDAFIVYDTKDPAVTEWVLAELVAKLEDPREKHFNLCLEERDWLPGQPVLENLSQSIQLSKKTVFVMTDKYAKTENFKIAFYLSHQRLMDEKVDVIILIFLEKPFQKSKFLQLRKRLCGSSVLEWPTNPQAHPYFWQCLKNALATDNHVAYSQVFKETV
Test: Reporter gene assay (HEK293 cells with human TLR7 and NF-kB-driven luciferase reporter)
Assay type: cell-based
Conditions: HEK 293 cells stably transfected with human TLR7 and NF-kB-driven luciferase reporter; 7 hours incubation; EC50 relative to activity of resiquimod set to 100%
Method: Human embryonic kidney 293 (HEK 293) cells were stably transfected with human TLR7 and an NF-kB-driven luciferase reporter vector (pNifty-Luciferase). As a control assay, normal Hek293 transfected with pNifty-Luc were used. Cells were cultured in DMEM supplemented with 2 mM L-glutamine, 10% heart inactivated FBS, 1% penicillin and streptomycin, 2 μg/ml puromycin (InvivoGen #ant-pr-5) and 5 μg/ml of blasticidin (Invitrogen #46-1120). Bright-Glo™ Luciferase assay buffer and substrate were supplied by Promega #E263B and #E264B (assay substrate and buffer respectively). 384 well clear-bottom plates were supplied by Greiner bio-one (#789163-G) and were custom bar-coded plates.
Cells were plated at 25,000 cells/well in 384-well plates in a final volume of 50 μl of media. Cells were allowed to adhere to the plates after overnight (18 hours) culture at 37° C. and 5% CO2. Serially diluted experimental and positive control compounds were then dispensed to each well and incubated for 7 hours at 37° C. and 5% CO2. Cells stimulated with DMSO alone also serve as negative controls. After the incubation, 30 μl of the pre-mix assay buffer and substrate buffer were added to each well according to manufacturer's instructions. The luminescence signal was read on a CLIPR machine with an integration time of 20 seconds per plate.
Dose response curves are generated for each compound and EC50 values were determined as the concentration that gives 50% of the maximal signal.

`CCCC[C@@H](CO)Nc1nc(N)nc2ccn(Cc3cc(CCC(=O)O)ccc3OC)c12` [Example 23, (S)-3-(3-((2-amino-4-((1-hydroxyhexan-2-yl)amino)-5H-pyrrolo[3,2-d]pyrimidin-5-yl)methyl)-4-methoxyphenyl)propanoic acid] and `CCCC[C@@H](CO)Nc1nc(N)nc2ccn(Cc3cc(CC(=O)O)ccc3OC)c12` [Example 5, (S)-2-(3-((2-amino-4-((1-hydroxyhexan-2-yl)amino)-5H-pyrrolo[3,2-d]pyrimidin-5-yl)methyl)-4-methoxyphenyl)acetic acid] are the same in EC50: 0.4 µM for the first, 0.4 µM for the second.

`CCCCCNc1nc(N)nc2ccn(Cc3cc(CCc4nnn[nH]4)ccc3OC)c12` [Example 15, 5-(5-(2-(1H-tetrazol-5-yl)ethyl)-2-methoxybenzyl)-N4-pentyl-5H-pyrrolo[3,2-d]pyrimidine-2,4-diamine] and `CCCCCNc1nc(N)nc2ccn(Cc3cc(Cc4nnn[nH]4)ccc3OC)c12` [Example 2, 5-(5-((1H-tetrazol-5-yl)methyl)-2-methoxybenzyl)-N4-pentyl-5H-pyrrolo[3,2-d]pyrimidine-2,4-diamine] are within 1.5-fold of each other in EC50: 0.06 µM for the first, 0.05 µM for the second.

Going from `CCCCCNc1nc(N)nc2ccn(Cc3ccc(OCC(=O)O)cc3OC)c12` [Example 26, 2-(4-((2-amino-4-(pentylamino)-5H-pyrrolo[3,2-d]pyrimidin-5-yl)methyl)-3-methoxyphenoxy)acetic acid] to `CCCCCNc1nc(N)nc2ccn(Cc3cc(CC(=O)O)ccc3OC)c12` [Example 4, 2-(3-((2-amino-4-(pentylamino)-5H-pyrrolo[3,2-d]pyrimidin-5-yl)methyl)-4-methoxyphenyl)acetic acid], the EC50 falls from 0.4 µM to 0.05 µM (8-fold).

Compared with `CCCCCNc1nc(N)nc2ccn(Cc3cc(C(F)(F)c4nnn[nH]4)ccc3OC)c12` [Example 16, 5-(5-(difluoro(1H-tetrazol-5-yl)methyl)-2-methoxybenzyl)-N4-pentyl-5H-pyrrolo[3,2-d]pyrimidine-2,4-diamine], `CCCCCNc1nc(N)nc2ccn(Cc3cc(C(C)(C)c4nnn[nH]4)ccc3OC)c12` [Example 11, 5-(5-(2-(1H-tetrazol-5-yl)propan-2-yl)-2-methoxybenzyl)-N4-pentyl-5H-pyrrolo[3,2-d]pyrimidine-2,4-diamine] is 2-fold lower in EC50: 0.2 µM for the first, 0.1 µM for the second. The second is the more potent here.

Going from `CCCCCNc1nc(N)nc2ccn(Cc3cc(Cc4nnn(CC(=O)O)n4)ccc3OC)c12` [Example 3, 2-(5-(3-((2-amino-4-(pentylamino)-5H-pyrrolo[3,2-d]pyrimidin-5-yl)methyl)-4-methoxybenzyl)-2H-tetrazol-2-yl)acetic acid] to `CCCCCNc1nc(N)nc2ccn(Cc3cc(CCC(=O)O)ccc3OC)c12` [Example 21, 3-(3-((2-amino-4-(pentylamino)-5H-pyrrolo[3,2-d]pyrimidin-5-yl)methyl)-4-methoxyphenyl)propanoic acid], the EC50 rises from 0.2 µM to 0.4 µM (2-fold).

First: CCCCCNc1nc(N)nc2ccn(Cc3cc(/C=C/C(=O)O)ccc3OC)c12 [Example 22, (E)-3-(3-((2-amino-4-(pentylamino)-5H-pyrrolo[3,2-d]pyrimidin-5-yl)methyl)-4-methoxyphenyl)acrylic acid]
Second: CCCCCNc1nc(N)nc2ccn(Cc3cc(C(=O)O)ccc3OC)c12 [Example 13, 3-((2-amino-4-(pentylamino)-5H-pyrrolo[3,2-d]pyrimidin-5-yl)methyl)-4-methoxybenzoic acid]
The EC50 of the first is 7-fold higher: 0.7 µM for the first, 0.1 µM for the second. The second is the more potent here.

Going from `CCCC[C@@H](CO)Nc1nc(N)nc2ccn(Cc3cc(-c4nnn[nH]4)ccc3OC)c12` [Example 10, (S)-2-((2-amino-5-(2-methoxy-5-(1H-tetrazol-5-yl)benzyl)-5H-pyrrolo[3,2-d]pyrimidin-4-yl)amino)hexan-1-ol] to `CCCC[C@@H](CO)Nc1nc(N)nc2ccn(Cc3cc(Cc4nnn[nH]4)ccc3OC)c12` [Example 6, (S)-2-((5-(5-((1H-tetrazol-5-yl)methyl)-2-methoxybenzyl)-2-amino-5H-pyrrolo[3,2-d]pyrimidin-4-yl)amino)hexan-1-ol], the EC50 falls from 0.2 µM to 0.1 µM (2-fold). The second is the more potent here.

`CCCCCNc1nc(N)nc2ccn(Cc3cc(CC[C@@H](O)C[C@@H](O)CC(=O)O)ccc3OC)c12` [Example 18, (3R,5R)-7-(3-((2-amino-4-(pentylamino)-5H-pyrrolo[3,2-d]pyrimidin-5-yl)methyl)-4-methoxyphenyl)-3,5-dihydroxyheptanoic acid] and `CCCCCNc1nc(N)nc2ccn(Cc3cc(C(F)(F)C(=O)O)ccc3OC)c12` [Example 17, 2-(3-((2-amino-4-(pentylamino)-5H-pyrrolo[3,2-d]pyrimidin-5-yl)methyl)-4-methoxyphenyl)-2,2-difluoroacetic acid] are within 1.5-fold of each other in EC50: 0.6 µM for the first, 0.5 µM for the second.

First: CCC[C@@H](CO)Nc1nc(N)nc2ccn(Cc3cc(Cc4nnn[nH]4)ccc3OC)c12 [Example 7, (S)-2-((5-(5-((1H-tetrazol-5-yl)methyl)-2-methoxybenzyl)-2-amino-5H-pyrrolo[3,2-d]pyrimidin-4-yl)amino)pentan-1-ol]
Second: CCCC[C@@H](CO)Nc1nc(N)nc2ccn(Cc3cc(C(C)(C)c4nnn[nH]4)ccc3OC)c12 [Example 12, (S)-2-((5-(5-(2-(1H-tetrazol-5-yl)propan-2-yl)-2-methoxybenzyl)-2-amino-5H-pyrrolo[3,2-d]pyrimidin-4-yl)amino)hexan-1-ol]
The EC50 of the first is 4-fold higher: 0.8 µM for the first, 0.2 µM for the second.

First: CCCCCNc1nc(N)nc2ccn(Cc3cc(CN4CCC[C@@H]4C(=O)O)ccc3OC)c12 [Example 24, (R)-1-(3-((2-amino-4-(pentylamino)-5H-pyrrolo[3,2-d]pyrimidin-5-yl)methyl)-4-methoxybenzyl)pyrrolidine-2-carboxylic acid]
Second: CCCCCNc1nc(N)nc2ccn(Cc3ccc(CN4CCC[C@H]4C(=O)O)cc3OC)c12 [Example 25, (S)-1-(4-((2-amino-4-(pentylamino)-5H-pyrrolo[3,2-d]pyrimidin-5-yl)methyl)-3-methoxybenzyl)pyrrolidine-2-carboxylic acid]
The EC50 of the first is 10-fold higher: 0.08 µM for the first, 0.008 µM for the second. The second is the more potent here.

Going from `CCCCCCNc1nc(N)nc2ccn(Cc3cc(-c4nnn[nH]4)ccc3OC)c12` [Example 9, N4-hexyl-5-(2-methoxy-5-(1H-tetrazol-5-yl)benzyl)-5H-pyrrolo[3,2-d]pyrimidine-2,4-diamine] to `CCCCCNc1nc(N)nc2ccn(Cc3cc(-c4nnn[nH]4)ccc3OC)c12` [Example 8, 5-(2-methoxy-5-(1H-tetrazol-5-yl)benzyl)-N4-pentyl-5H-pyrrolo[3,2-d]pyrimidine-2,4-diamine], the EC50 falls from 0.8 µM to 0.3 µM (2.7-fold).

Compared with `CCCCCNc1nc(N)nc2ccn(Cc3cc(OCc4nnn[nH]4)ccc3OC)c12` [Example 1, 5-(5-((1H-tetrazol-5-yl)methoxy)-2-methoxybenzyl)-N4-pentyl-5H-pyrrolo[3,2-d]pyrimidine-2,4-diamine], `CCCCCNc1nc(N)nc2ccn(Cc3ccc(-c4nnn[nH]4)cc3OC)c12` [Example 14, 5-(2-methoxy-4-(1H-tetrazol-5-yl)benzyl)-N4-pentyl-5H-pyrrolo[3,2-d]pyrimidine-2,4-diamine] is 14-fold higher in EC50: 0.1 µM for the first, 1.4 µM for the second.

Going from `CCCCCNc1nc(N)nc2ccn(Cc3cc(P(=O)(O)O)ccc3OC)c12` [Example 19, (3-((2-amino-4-(pentylamino)-5H-pyrrolo[3,2-d]pyrimidin-5-yl)methyl)-4-methoxyphenyl)phosphonic acid] to `CCCCCNc1nc(N)nc2ccn(Cc3cc(P(=O)(O)OC)ccc3OC)c12` [Example 20, methyl hydrogen (3-((2-amino-4-(pentylamino)-5H-pyrrolo[3,2-d]pyrimidin-5-yl)methyl)-4-methoxyphenyl)phosphonate], the EC50 rises from 0.08 µM to 0.3 µM (3.8-fold).
